Experimental data reported in the supplement of paper PMC10307832.

Each cell line was assayed with C[C@]1(c2nc3c(C(N)=O)cccc3[nH]2)CCCN1 [Veliparib] + Cc1nc(Nc2ncc(C(=O)Nc3c(C)cccc3Cl)s2)cc(N2CCN(CCO)CC2)n1 [Dasatinib] (partner 0.075 µM) (assay: relative viability (nuclei count vs DMSO), 5 days (fraction); higher = more cells survive). Settings: first compound 2 µM.
How it was run: (§1)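 Lung cancer cell lines were seeded in 1536-well plates and dosed by pin tool the next day, with either a single drug or a fixed anchor-drug dose combined with five library-drug doses (not always all listed) spaced in √10 steps. Five days later, one step fixed the cells and stained their nuclei (final 0.05% Triton X-100, 1% formaldehyde, 1 ug/ml Hoechst), and nuclei were counted on 4× images. Relative viability is the nuclei count in treated wells divided by the count in vehicle wells, and each value is the median of duplicate plates.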

Cell Line | relative viability
NCI-H522 | 0.812
NCI-H1563 | 0.482
NCI-H727 | 0.331
NCI-H1793 | 0.448
NCI-H1792 | 0.717
NCI-H2170 | 0.592
SK-MES-1 | 0.484
NCI-H1944 | 0.219

Each cell line was assayed with C[C@]1(c2nc3c(C(N)=O)cccc3[nH]2)CCCN1 [Veliparib] + CC(C)C[C@H](NC(=O)[C@H](Cc1ccccc1)NC(=O)c1cnccn1)B(O)O [Bortezomib] (partner 0.002 µM) in the same assay as above. Settings: first compound 0.02 µM.
How it was run: as §1

Cell Line | relative viability
LU99A | 1.16
NCI-H1975 | 0.394
H3255 | 0.729
NCI-H2023 | 0.505
NCI-H2405 | 0.96
SK-LU-1 | 1.51
NCI-H1734 | 0.911
NCI-H1437 | 0.424
NCI-H596 | 1.14
HCC-15 | 0.781
EMC-BAC-2 | 1.11
IA-LM | 0.831
NCI-H2009 | 0.299
COR-L 105 | 0.735
NCI-H520 | 0.532
HCC-78 | 0.537
EKVX | 0.806
EBC-1 | 0.615
NCI-H1299 | 1.04
PC-14 | 0.865
NCI-H1563 | 0.645
NCI-H727 | 0.381
NCI-H1703 | 0.366
Calu-6 | 1.1
HCC-44 | 0.885
NCI-H1792 | 0.924

Same assay, conditions: first compound 0.06325 µM

Cell Line | relative viability
LU99A | 1.1
NCI-H1975 | 0.465
H3255 | 0.835
NCI-H2023 | 0.913
NCI-H2405 | 0.858
SK-LU-1 | 1.03
NCI-H1734 | 0.779
NCI-H1437 | 0.496
ABC-1 | 0.266
NCI-H596 | 1
HCC-15 | 1.02
NCI-H460 | 0.952
EMC-BAC-2 | 1.03
IA-LM | 0.748
NCI-H2009 | 0.869
COR-L 105 | 0.633
NCI-H520 | 0.67
HCC-78 | 0.482
EKVX | 0.893
EBC-1 | 0.539
NCI-H1299 | 0.979
NCI-H1650 | 0.195
EPLC-272H | 0.84
PC-14 | 0.807
NCI-H1563 | 0.803
NCI-H727 | 0.754
NCI-H1703 | 0.308
Calu-6 | 0.966
HCC-44 | 0.759
NCI-H1792 | 0.858

Same assay, conditions: first compound 0.2 µM

Cell Line | relative viability
LU99A | 0.833
NCI-H1975 | 0.429
H3255 | 0.737
NCI-H2023 | 0.937
NCI-H2405 | 0.978
SK-LU-1 | 0.984
NCI-H1734 | 0.904
NCI-H1437 | 0.472
ABC-1 | 0.257
NCI-H596 | 1.06
HCC-15 | 0.991
NCI-H460 | 1.01
EMC-BAC-2 | 1.07
IA-LM | 0.794
NCI-H2009 | 0.808
COR-L 105 | 0.548
NCI-H520 | 0.791
HCC-78 | 0.639
EKVX | 0.888
EBC-1 | 0.527
NCI-H1299 | 1.02
NCI-H1650 | 0.204
EPLC-272H | 0.964
PC-14 | 0.795
NCI-H1563 | 0.859
NCI-H727 | 0.755
NCI-H1703 | 0.408
Calu-6 | 0.926
HCC-44 | 0.879
NCI-H1792 | 0.981

Same assay, conditions: first compound 0.6325 µM

Cell Line | relative viability
LU99A | 1.06
NCI-H1975 | 0.412
H3255 | 0.827
NCI-H2023 | 0.965
NCI-H2405 | 0.988
SK-LU-1 | 1.36
NCI-H1734 | 0.827
NCI-H1437 | 0.47
ABC-1 | 0.259
NCI-H596 | 1.11
HCC-15 | 0.932
NCI-H460 | 1.07
EMC-BAC-2 | 1.05
IA-LM | 0.83
NCI-H2009 | 0.919
COR-L 105 | 0.783
NCI-H520 | 0.608
HCC-78 | 0.428
EKVX | 0.978
EBC-1 | 0.479
NCI-H1299 | 1.03
NCI-H1650 | 0.2
EPLC-272H | 0.85
PC-14 | 0.714
NCI-H1563 | 0.792
NCI-H727 | 0.82
NCI-H1703 | 0.354
Calu-6 | 1.02
HCC-44 | 0.829
NCI-H1792 | 0.916

Same assay, conditions: first compound 2 µM

Cell Line | relative viability
LU99A | 1.29
NCI-H1975 | 0.424
H3255 | 1.02
NCI-H2023 | 0.924
NCI-H2405 | 0.93
SK-LU-1 | 0.589
NCI-H1734 | 1.01
NCI-H1437 | 0.474
ABC-1 | 0.304
NCI-H596 | 0.902
HCC-15 | 0.984
NCI-H460 | 1.09
EMC-BAC-2 | 1.09
IA-LM | 0.813
NCI-H2009 | 1.15
COR-L 105 | 0.83
NCI-H520 | 0.643
HCC-78 | 0.474
EKVX | 1.16
EBC-1 | 0.57
NCI-H1299 | 1
NCI-H1650 | 0.182
EPLC-272H | 0.878
PC-14 | 0.757
NCI-H1563 | 0.799
NCI-H727 | 0.815
NCI-H1703 | 0.426
Calu-6 | 0.859
HCC-44 | 0.846
NCI-H1792 | 0.897

The cell lines below were run with C[C@]1(c2nc3c(C(N)=O)cccc3[nH]2)CCCN1 [Veliparib] + O=C(CCCCCCC(=O)Nc1ccccc1)NO [Vorinostat] (partner 1 µM) in the same assay as above. Settings: first compound 0.02 µM.
How it was run: as §1

Cell Line | relative viability
NCI-H2342 | 0.787
LU99A | 0.513
NCI-H1975 | 0.771
H3255 | 0.707
